Among the data in patent US10501451B2, “Selective NR2B antagonists” (BRISTOL-MYERS SQUIBB COMPANY, priority 2015, dated 2019) are Ki values, retold here.

The assay has as its target NR2B-subtype NMDA receptors (Rattus norvegicus (Rat), UniProt P35439+Q00960). Kind of assay: Radioligand binding assay (3H Ro 25-6981 competition, rat forebrain membranes). The note with it: 3H Ro 25-6981 (4 nM). As to the method:
Radioligand Binding Assay. Binding experiments to determine binding to NR2B-subtype NMDA receptors were performed on forebrains of 8-10 weeks old male Sprague Dawley rats (Harlan, Netherlands) using ^3H Ro 25-6981 (Mutel V; Buchy D; Klingelschmidt A; Messer J; Bleuel Z; Kemp J A; Richards J G. Journal of Neurochemistry, 1998, 70(5):2147-2155. Rats were decapitated without anesthesia using a Guillotine (approved by animal ethics committee) and the harvested brains were snap-frozen and stored at −80° C. for 3-6 months for membrane preparation.
For membrane preparation, rat forebrains were thawed on ice for 20 minutes in homogenization buffer composed of 50 mM KH2PO4 (pH adjusted to 7.4 with KOH), 1 mM EDTA, 0.005% Triton X 100 and protease inhibitor cocktail (Sigma Aldrich). Thawed brains were homogenized using a Dounce homogenizer and centrifuged at 48000×g for 20 min. The pellet was resuspended in cold buffer and homogenized again using a Dounce homogenizer. Subsequently, the homogenate was aliquoted, snap-frozen and stored at −80° C. for not more than 3-4 months.
To perform the competition binding assay, thawed membrane homogenate was added to each well of a 96-well plate (20 μg/well). The experimental compounds were serially diluted in 100% DMSO and added to each row of the assay plate to achieve desired compound concentrations, keeping the DMSO concentration in the assay plate at 1.33% of the final reaction volume. Next, ^3H Ro 25-6981 (4 nM) was added to the assay plate. After incubation for 1 hr at room temperature, the membrane bound radioligand was harvested on to GF/B filter plates (treated with 0.5% PEI for 1 hr at room temperature). The filter plates were dried at 50° C. for 20 mins, incubated with microscint 20 for 10 minutes and finally, the counts were read on TopCount (Perkin Elmer).

Molecules are shown by their SMILES. Where two headings read alike, the source gives them in different places.

Sequence of NR2B-subtype NMDA receptors (Q00960 27-1482, other chains not shown): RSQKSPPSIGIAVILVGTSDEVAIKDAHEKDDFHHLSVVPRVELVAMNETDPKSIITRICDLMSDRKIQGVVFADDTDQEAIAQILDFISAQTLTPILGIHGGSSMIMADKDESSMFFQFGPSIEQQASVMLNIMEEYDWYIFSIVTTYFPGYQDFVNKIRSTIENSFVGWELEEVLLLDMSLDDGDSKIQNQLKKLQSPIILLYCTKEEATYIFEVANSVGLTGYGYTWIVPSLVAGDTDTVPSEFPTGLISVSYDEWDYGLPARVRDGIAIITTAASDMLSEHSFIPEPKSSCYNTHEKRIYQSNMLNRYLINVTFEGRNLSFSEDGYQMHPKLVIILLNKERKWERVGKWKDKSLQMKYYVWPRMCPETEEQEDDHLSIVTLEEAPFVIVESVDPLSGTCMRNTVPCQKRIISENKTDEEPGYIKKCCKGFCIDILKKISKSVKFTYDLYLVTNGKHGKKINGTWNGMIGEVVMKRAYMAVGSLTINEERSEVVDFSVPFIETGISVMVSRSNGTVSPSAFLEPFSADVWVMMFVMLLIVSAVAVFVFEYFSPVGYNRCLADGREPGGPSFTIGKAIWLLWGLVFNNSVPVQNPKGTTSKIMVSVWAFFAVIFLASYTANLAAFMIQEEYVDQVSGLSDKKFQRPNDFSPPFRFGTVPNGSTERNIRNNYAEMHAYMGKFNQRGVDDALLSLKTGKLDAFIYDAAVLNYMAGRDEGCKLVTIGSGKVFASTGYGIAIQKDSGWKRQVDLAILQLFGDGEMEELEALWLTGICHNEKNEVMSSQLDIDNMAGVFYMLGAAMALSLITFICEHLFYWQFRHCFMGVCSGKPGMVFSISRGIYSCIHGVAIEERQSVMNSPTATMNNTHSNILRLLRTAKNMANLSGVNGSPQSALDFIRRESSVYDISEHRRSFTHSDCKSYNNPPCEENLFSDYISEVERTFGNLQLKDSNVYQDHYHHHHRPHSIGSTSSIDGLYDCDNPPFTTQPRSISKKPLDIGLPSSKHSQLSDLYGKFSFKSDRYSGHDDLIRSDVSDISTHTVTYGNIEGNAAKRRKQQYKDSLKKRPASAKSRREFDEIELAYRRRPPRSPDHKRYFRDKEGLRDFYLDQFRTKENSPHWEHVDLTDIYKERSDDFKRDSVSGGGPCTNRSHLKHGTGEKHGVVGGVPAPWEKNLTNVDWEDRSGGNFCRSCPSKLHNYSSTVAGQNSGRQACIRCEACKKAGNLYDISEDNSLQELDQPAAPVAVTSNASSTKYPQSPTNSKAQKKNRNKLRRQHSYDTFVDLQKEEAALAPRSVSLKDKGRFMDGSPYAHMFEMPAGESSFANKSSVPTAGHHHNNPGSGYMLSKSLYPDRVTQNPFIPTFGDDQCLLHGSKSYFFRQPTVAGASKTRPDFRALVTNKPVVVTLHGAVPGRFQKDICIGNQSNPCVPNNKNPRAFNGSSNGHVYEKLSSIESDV

In the case of `O=C1C(N2CCC(c3ccc(O)cc3)CC2)CON1Cc1ccc(F)cc1` (single isomer, unassigned) [Example 1, P-1, 2-(4-fluorobenzyl)-4-(4-(4-hydroxyphenyl)piperidin-1-yl)isoxazolidin-3-one], the Ki (in general, a dissociation constant, usually derived from enzyme kinetics or from competition with a known ligand) (P-1, read-out: NR2B Binding Ki) came to 305 nM.

Regarding `O=C1C(N2CCC(c3ccc(O)cc3)CC2)CON1Cc1ccc(F)cc1` (single isomer, unassigned) [Example 1, P-2, 2-(4-fluorobenzyl)-4-(4-(4-hydroxyphenyl)piperidin-1-yl)isoxazolidin-3-one], where the note is “listed as 1, P-2, read-out: NR2B Binding Ki”, the Ki was determined as 4.08 nM.

For `Cc1ccc(CN2OCC(N3CCC(c4ccc(O)cc4)CC3)C2=O)cc1` (single isomer, unassigned) [Example 2, P-1, 4-(4-(4-hydroxyphenyl)piperidin-1-yl)-2-(4-methylbenzyl)isoxazolidin-3-one], the Ki (listed as 2, P-1, read-out: NR2B Binding Ki) was determined as 112 nM.

For `Cc1ccc(CN2OCCC(N3CC[C@@H](c4ccc(O)cc4)[C@H](F)C3)C2=O)cc1` (single isomer, unassigned) [Example 5, P-1], the inhibitory constant (Ki) (listed as 5, P-1, read-out: NR2B Binding Ki) came out at 144 nM.

On to `Cc1ccc(CN2OCCC(N3CC[C@@H](c4ccc(O)cc4)[C@H](F)C3)C2=O)cc1` (single isomer, unassigned) [Example 5, P-2], for which, under “listed as 5, P-2, read-out: NR2B Binding Ki”, the Ki came out at 4.37 nM.

Turning to `Cc1ccc(CN2OCCC(N3CCC(c4ccc(O)cn4)CC3)C2=O)cc1` (single isomer, unassigned) [Example 6, P-1, 4-(4-(5-hydroxypyridin-2-yl)piperidin-1-yl)-2-(4-methylbenzyl)-1,2-oxazinan-3-one], the Ki (listed as 6, P-1, read-out: NR2B Binding Ki) was 6.53 nM.

For the compound `Cc1ccc(CN2OCCC(N3CCC(c4ccc(O)cn4)CC3)C2=O)cc1` (single isomer, unassigned) [Example 6, P-2, 4-(4-(5-hydroxypyridin-2-yl)piperidin-1-yl)-2-(4-methylbenzyl)-1,2-oxazinan-3-one], under “listed as 6, P-2, read-out: NR2B Binding Ki”, the Ki worked out at 8.16 nM.

As for `Cc1ccc(CN2OCCC(N3CC[C@H](c4ccc(O)cc4)[C@@H](F)C3)C2=O)cc1` (single isomer, unassigned) [Example 7, P-1], the Ki (listed as 7, P-1, read-out: NR2B Binding Ki) is 125 nM.

As for `Cc1ccc(CN2OCCC(N3CC[C@H](c4ccc(O)cc4)[C@@H](F)C3)C2=O)cc1` (single isomer, unassigned) [Example 7, P-2], under “listed as 7, P-2, read-out: NR2B Binding Ki”, the Ki is 4.98 nM.

Consider `Cc1ccc(CN2OCCC(N3CCN(c4ccc(O)cn4)CC3)C2=O)cc1` (single isomer, unassigned) [Example 8, P-1, 4-(4-(5-hydroxypyridin-2-yl)piperazin-1-yl)-2-(4-methylbenzyl)-1,2-oxazinan-3-one], for which, for the setting “listed as 8, P-1, read-out: NR2B Binding Ki”, the Ki came out at 57.8 nM.

For the compound `Cc1ccc(CN2OCCC(N3CCN(c4ccc(O)cn4)CC3)C2=O)cc1` (single isomer, unassigned) [Example 8, P-2, 4-(4-(5-hydroxypyridin-2-yl)piperazin-1-yl)-2-(4-methylbenzyl)-1,2-oxazinan-3-one], the Ki (listed as 8, P-2, read-out: NR2B Binding Ki) was 18.8 nM.

On to `Cc1ccc(CN2OCC(N3CCC(c4ccc(O)cn4)CC3)C2=O)cc1` (single isomer, unassigned) [Example 9, P-1, 4-(4-(5-hydroxypyridin-2-yl)piperidin-1-yl)-2-(4-methylbenzyl)isoxazolidin-3-one], for which the inhibition constant Ki (listed as 9, P-1, read-out: NR2B Binding Ki) came out at 139 nM.

With `Cc1ccc(CN2OCC(N3CCC(c4ccc(O)cn4)CC3)C2=O)cc1` (single isomer, unassigned) [Example 9, P-2, 4-(4-(5-hydroxypyridin-2-yl)piperidin-1-yl)-2-(4-methylbenzyl)isoxazolidin-3-one], the Ki (listed as 9, P-2, read-out: NR2B Binding Ki) was 12.1 nM.

On to `Cc1ccc(CN2OCC(N3CCN(c4ccc(O)cn4)CC3)C2=O)cc1` (single isomer, unassigned) [Example 10, P-2, 4-(4-(5-hydroxypyridin-2-yl)piperazin-1-yl)-2-(4-methylbenzyl)isoxazolidin-3-one], for which, under “listed as 10, P-2, read-out: NR2B Binding Ki”, the Ki is 10.7 nM.

Consider `Cc1ccc(CN2OCCC(N3CCC(c4ccc(O)c(F)c4)C(F)C3)C2=O)cc1` (single isomer, unassigned) [Example 11, P-1, 4-(3-fluoro-4-(3-fluoro-4-hydroxyphenyl)piperidin-1-yl)-2-(4-methylbenzyl)-1,2-oxazinan-3-one], for which, for the setting “listed as 11, P-1, read-out: NR2B Binding Ki”, the Ki came out at 3.06 nM.

For `Cc1ccc(CN2OCCC(N3CCC(c4ccc(O)c(F)c4)C(F)C3)C2=O)cc1` (single isomer, unassigned) [Example 11, P-2, 4-(3-fluoro-4-(3-fluoro-4-hydroxyphenyl)piperidin-1-yl)-2-(4-methylbenzyl)-1,2-oxazinan-3-one], the Ki (listed as 11, P-2, read-out: NR2B Binding Ki) stood at 39.3 nM.

As to `O=C1C(N2CC[C@@H](c3ccc(O)cc3)[C@H](F)C2)CCON1Cc1ccc(Cl)cc1` (single isomer, unassigned) [Example 12, P-1], the Ki (listed as 12, P-1, read-out: NR2B Binding Ki) worked out at 3.9 nM.

In the case of `O=C1C(N2CC[C@@H](c3ccc(O)cc3)[C@H](F)C2)CCON1Cc1ccc(Cl)cc1` (single isomer, unassigned) [Example 12, P-2], where the note is “listed as 12, P-2, read-out: NR2B Binding Ki”, the inhibition constant (Ki) was 150 nM.

As for `O=C1C(N2CCC(c3ccc(O)c(F)c3)C(F)C2)CCON1Cc1ccc(F)cc1` (single isomer, unassigned) [Example 13, P-1, 4-(3-fluoro-4-(3-fluoro-4-hydroxyphenyl)piperidin-1-yl)-2-(4-fluorobenzyl)-1,2-oxazinan-3-one], where the note is “listed as 13, P-1, read-out: NR2B Binding Ki”, the Ki was found to be 367 nM.

Take `O=C1C(N2CCC(c3ccc(O)c(F)c3)C(F)C2)CCON1Cc1ccc(F)cc1` (single isomer, unassigned) [Example 13, P-2, 4-(3-fluoro-4-(3-fluoro-4-hydroxyphenyl)piperidin-1-yl)-2-(4-fluorobenzyl)-1,2-oxazinan-3-one]: the inhibition constant Ki (listed as 13, P-2, read-out: NR2B Binding Ki) turned out to be 4.03 nM.

As for `O=C1C(N2CCC(c3ccc(O)c(F)c3)C(F)C2)CCON1Cc1ccc(Cl)cc1` (single isomer, unassigned) [Example 14, P-1, 2-(4-chlorobenzyl)-4-(3-fluoro-4-(3-fluoro-4-hydroxyphenyl)piperidin-1-yl)-1,2-oxazinan-3-one], for the setting “listed as 14, P-1, read-out: NR2B Binding Ki”, the Ki was 98.7 nM.

Take `O=C1C(N2CCC(c3ccc(O)c(F)c3)C(F)C2)CCON1Cc1ccc(Cl)cc1` (single isomer, unassigned) [Example 14, P-2, 2-(4-chlorobenzyl)-4-(3-fluoro-4-(3-fluoro-4-hydroxyphenyl)piperidin-1-yl)-1,2-oxazinan-3-one]: the Ki (listed as 14, P-2, read-out: NR2B Binding Ki) was found to be 2.8 nM.

Consider `O=C1C(N2CC[C@@H](c3ccc(O)cc3)[C@H](F)C2)CCON1Cc1ccc(F)cc1` (single isomer, unassigned) [Example 15, P-1], for which, for the setting “listed as 15, P-1, read-out: NR2B Binding Ki”, the Ki was 393 nM.

As to `O=C1C(N2CC[C@@H](c3ccc(O)cc3)[C@H](F)C2)CCON1Cc1ccc(F)cc1` (single isomer, unassigned) [Example 15, P-2], under “listed as 15, P-2, read-out: NR2B Binding Ki”, the Ki was 12.5 nM.
